Data as given in patent publication US8952024B2, “Herbicidal pyrimidone derivatives” (E I du Pont de Nemours and Company, priority 2009, dated 2015).

Legend:
Assay type in all cases: in vivo
[1] = tested on: cocklebur (Xanthium strumarium); assay: Test B pre-/postemergence plant response; conditions: for Cocklebur plant response rating (0 to 100 scale): 62 g ai/ha, 0 is no effect, 13 to 15 days
Summary of the method: (§1)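 Greenhouse herbicide screen. Pre- and postemergence (1- to 4-leaf) spray of compound in solvent/surfactant mixture; loam–sand soil for pre, peat/vermiculite medium for post. Visual control rating 0–100 at 13 to 15 days after treatment.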

[2] = tested on: soybean (Glycine max); assay: Test B pre-/postemergence plant response; conditions: for Soybean plant response rating (0 to 100 scale): 62 g ai/ha, 0 is no effect, 13 to 15 days
Summary of the method: as §1

[3] = tested on: morningglory (Ipomoea coccinea); assay: Test B pre-/postemergence plant response; conditions: for Morningglory plant response rating (0 to 100 scale): 62 g ai/ha, 0 is no effect, 13 to 15 days
Summary of the method: as §1

[4] = tested on: wheat (Triticum aestivum); assay: Test B pre-/postemergence plant response; conditions: for Wheat plant response rating (0 to 100 scale): 62 g ai/ha, 0 is no effect, 13 to 15 days
Summary of the method: as §1

[5] = tested on: pigweed (Amaranthus retroflexus); assay: Test A pre-/postemergence plant response
Summary of the method: (§2)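 Greenhouse pots of loam/sand received directed preemergence soil sprays or postemergence sprays (plants 2–10 cm, 1–2 leaf stage), compounds formulated in non-phytotoxic solvent with surfactant. Injury was rated visually versus untreated controls after about ten days on a 0 (no effect) to 100 (complete control) scale.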

[6] = tested on: barnyardgrass (Echinochloa crus-galli); assay: Test A pre-/postemergence plant response
Summary of the method: as §2

[7] = tested on: morningglory (Ipomoea spp.); assay: Test A pre-/postemergence plant response
Summary of the method: as §2

[8] = tested on: large crabgrass (Digitaria sanguinalis); assay: Test A pre-/postemergence plant response
Summary of the method: as §2

[9] = tested on: corn (Zea mays); assay: Test A pre-/postemergence plant response
Summary of the method: as §2

[10] = tested on: wheat (Triticum aestivum); assay: Test A pre-/postemergence plant response
Summary of the method: as §2

[11] = tested on: giant foxtail (Setaria faberii); assay: Test A pre-/postemergence plant response
Summary of the method: as §2

[12] = tested on: velvetleaf (Abutilon theophrasti); assay: Test A pre-/postemergence plant response
Summary of the method: as §2

[13] = 31 g ai/ha, postemergence, scale 0 to 100, 0 is no effect, 100 is complete control
[14] = postemergence, 100 is complete control
[15] = Postemergence, 125 g ai/ha, visual rating after 13 to 15 days, scale 0 (no effect) to 100 (complete control)
[16] = Postemergence, 250 g ai/ha, scale 0 to 100 (0 no effect, 100 complete control)
[17] = Postemergence, 125 g ai/ha, 0 to 100 scale where 0 is no effect and 100 is complete control
[18] = Postemergence, 500 g ai/ha, 0 to 100 scale, 0 = no effect, 100 = complete control, approx. ten days
[19] = Preemergence, 125 g ai/ha, 0 to 100 scale, 0 = no effect, 100 = complete control
[20] = Preemergence, 500 g ai/ha, visual injury, 0 to 100 scale (0 no effect, 100 complete control), approx. ten days

O=C1CCCC(O)=C1C(=O)c1cnc(C2CC2)n(-c2ccccc2)c1=O [Compound 87]
80: Plant response rating, Barnyardgrass [6, 17] | Plant response rating, Morningglory [7, 20] | Plant response rating, Foxtail, Giant [11, 20]
0: Plant response rating, Corn [9, 19] | Plant response rating, Corn [9, 20]
45: Plant response rating, Morningglory [3, 13] | Morningglory plant response rating (0 to 100 scale) [3, 14]
10: Plant response rating, Corn [9, 17] | Plant response rating, Wheat [10, 19]
50: Plant response rating, Wheat [4, 16] | Plant response rating, Morningglory [7, 19] | Plant response rating, Corn [9, 18]
60: Plant response rating, Wheat [10, 18]
100: Cocklebur plant response rating (0 to 100 scale) [1, 14] | Plant response rating, Cocklebur [1, 15] | Plant response rating, Cocklebur [1, 16] | Plant response rating, Soybean [2, 16] | Plant response rating, Pigweed [5, 17] | Plant response rating, Pigweed [5, 18] | Plant response rating, Morningglory [7, 18] | Plant response rating, Crabgrass, Large [8, 20] | Plant response rating, Velvetleaf [12, 17] | Plant response rating, Velvetleaf [12, 18] | Plant response rating, Velvetleaf [12, 19] | Plant response rating, Velvetleaf [12, 20]
20: Plant response rating, Barnyardgrass [6, 19]
70: Plant response rating, Foxtail, Giant [11, 17]
40: Plant response rating, Wheat [10, 20]
65: Plant response rating, Morningglory [3, 16]
98: Plant response rating, Cocklebur [1, 13] | Plant response rating, Soybean [2, 13] | Soybean plant response rating (0 to 100 scale) [2, 14]
30: Plant response rating, Wheat [10, 17]
35: Plant response rating, Wheat [4, 13] | Wheat plant response rating (0 to 100 scale) [4, 14]
90: Plant response rating, Barnyardgrass [6, 18] | Plant response rating, Barnyardgrass [6, 20] | Plant response rating, Morningglory [7, 17] | Plant response rating, Crabgrass, Large [8, 17] | Plant response rating, Crabgrass, Large [8, 18] | Plant response rating, Foxtail, Giant [11, 18]

O=C1CCCC(O)=C1C(=O)c1cnc(-c2ccccc2)n(C2CC2)c1=O [Compound 90]
95: Morningglory plant response rating (0 to 100 scale) [3, 14]
10: Wheat plant response rating (0 to 100 scale) [4, 14]
98: Plant response rating, Soybean [2, 13] | Soybean plant response rating (0 to 100 scale) [2, 14]
90: Cocklebur plant response rating (0 to 100 scale) [1, 14] | Plant response rating, Barnyardgrass [6, 18] | Plant response rating, Crabgrass, Large [8, 18]
80: Plant response rating, Pigweed [5, 19] | Plant response rating, Barnyardgrass [6, 17] | Plant response rating, Crabgrass, Large [8, 17] | Plant response rating, Foxtail, Giant [11, 18]
35: Plant response rating, Wheat [4, 16]
75: Plant response rating, Cocklebur [1, 13]
65: Plant response rating, Morningglory [3, 13]
60: Plant response rating, Crabgrass, Large [8, 19] | Plant response rating, Foxtail, Giant [11, 20]
70: Plant response rating, Barnyardgrass [6, 20] | Plant response rating, Morningglory [7, 20] | Plant response rating, Foxtail, Giant [11, 17] | Plant response rating, Velvetleaf [12, 19]
40: Plant response rating, Barnyardgrass [6, 19] | Plant response rating, Wheat [10, 18]
0: Plant response rating, Morningglory [7, 19] | Plant response rating, Corn [9, 17] | Plant response rating, Corn [9, 19] | Plant response rating, Corn [9, 20] | Plant response rating, Wheat [10, 17] | Plant response rating, Wheat [10, 19] | Plant response rating, Wheat [10, 20]
20: Plant response rating, Corn [9, 18]
100: Plant response rating, Cocklebur [1, 15] | Plant response rating, Cocklebur [1, 16] | Plant response rating, Soybean [2, 16] | Plant response rating, Morningglory [3, 16] | Plant response rating, Pigweed [5, 17] | Plant response rating, Pigweed [5, 18] | Plant response rating, Pigweed [5, 20] | Plant response rating, Morningglory [7, 17] | Plant response rating, Morningglory [7, 18] | Plant response rating, Crabgrass, Large [8, 20] | Plant response rating, Velvetleaf [12, 17] | Plant response rating, Velvetleaf [12, 18] | Plant response rating, Velvetleaf [12, 20]
30: Plant response rating, Foxtail, Giant [11, 19]
5: Plant response rating, Wheat [4, 13]

COCCOCCn1c(-c2ccccc2)ncc(C(=O)C2=C(O)CCCC2=O)c1=O [Compound 91]
85: Soybean plant response rating (0 to 100 scale) [2, 14]
90: Morningglory plant response rating (0 to 100 scale) [3, 14] | Plant response rating, Pigweed [5, 19] | Plant response rating, Pigweed [5, 20] | Plant response rating, Barnyardgrass [6, 17] | Plant response rating, Crabgrass, Large [8, 17] | Plant response rating, Crabgrass, Large [8, 19]
98: Plant response rating, Soybean [2, 16] | Plant response rating, Morningglory [3, 16]
60: Plant response rating, Barnyardgrass [6, 19]
10: Wheat plant response rating (0 to 100 scale) [4, 14] | Plant response rating, Corn [9, 18]
75: Plant response rating, Soybean [2, 13] | Plant response rating, Morningglory [3, 13]
20: Plant response rating, Cocklebur [1, 13] | Plant response rating, Morningglory [7, 19] | Plant response rating, Wheat [10, 20]
100: Plant response rating, Pigweed [5, 17] | Plant response rating, Pigweed [5, 18] | Plant response rating, Barnyardgrass [6, 18] | Plant response rating, Barnyardgrass [6, 20] | Plant response rating, Morningglory [7, 17] | Plant response rating, Morningglory [7, 18] | Plant response rating, Crabgrass, Large [8, 18] | Plant response rating, Crabgrass, Large [8, 20] | Plant response rating, Velvetleaf [12, 17] | Plant response rating, Velvetleaf [12, 18] | Plant response rating, Velvetleaf [12, 19] | Plant response rating, Velvetleaf [12, 20]
0: Plant response rating, Wheat [4, 13] | Plant response rating, Corn [9, 17] | Plant response rating, Corn [9, 19] | Plant response rating, Corn [9, 20] | Plant response rating, Wheat [10, 17] | Plant response rating, Wheat [10, 19]
70: Plant response rating, Foxtail, Giant [11, 20]
50: Plant response rating, Wheat [4, 16] | Plant response rating, Wheat [10, 18]
95: Plant response rating, Cocklebur [1, 15] | Plant response rating, Cocklebur [1, 16]
65: Cocklebur plant response rating (0 to 100 scale) [1, 14]
80: Plant response rating, Morningglory [7, 20] | Plant response rating, Foxtail, Giant [11, 17] | Plant response rating, Foxtail, Giant [11, 18]
40: Plant response rating, Foxtail, Giant [11, 19]

O=C1CCCC(O)=C1C(=O)c1cnc(C2CCCC2)n(-c2ccccc2)c1=O [Compound 92]
95: Morningglory plant response rating (0 to 100 scale) [3, 14]
25: Plant response rating, Cocklebur [1, 13]
100: Plant response rating, Morningglory [3, 16] | Plant response rating, Pigweed [5, 17] | Plant response rating, Pigweed [5, 18] | Plant response rating, Pigweed [5, 19] | Plant response rating, Pigweed [5, 20] | Plant response rating, Barnyardgrass [6, 20] | Plant response rating, Morningglory [7, 17] | Plant response rating, Morningglory [7, 18] | Plant response rating, Crabgrass, Large [8, 20] | Plant response rating, Velvetleaf [12, 17] | Plant response rating, Velvetleaf [12, 18] | Plant response rating, Velvetleaf [12, 20]
60: Plant response rating, Barnyardgrass [6, 19]
0: Plant response rating, Wheat [4, 13] | Wheat plant response rating (0 to 100 scale) [4, 14] | Plant response rating, Wheat [4, 16] | Plant response rating, Morningglory [7, 19] | Plant response rating, Corn [9, 17] | Plant response rating, Corn [9, 19] | Plant response rating, Corn [9, 20] | Plant response rating, Wheat [10, 17] | Plant response rating, Wheat [10, 18] | Plant response rating, Wheat [10, 19] | Plant response rating, Wheat [10, 20]
98: Plant response rating, Cocklebur [1, 15] | Plant response rating, Cocklebur [1, 16] | Soybean plant response rating (0 to 100 scale) [2, 14] | Plant response rating, Soybean [2, 16]
20: Plant response rating, Corn [9, 18]
80: Cocklebur plant response rating (0 to 100 scale) [1, 14] | Plant response rating, Morningglory [3, 13] | Plant response rating, Barnyardgrass [6, 17] | Plant response rating, Morningglory [7, 20] | Plant response rating, Foxtail, Giant [11, 17] | Plant response rating, Foxtail, Giant [11, 20]
70: Plant response rating, Foxtail, Giant [11, 19]
90: Plant response rating, Soybean [2, 13] | Plant response rating, Barnyardgrass [6, 18] | Plant response rating, Crabgrass, Large [8, 17] | Plant response rating, Crabgrass, Large [8, 18] | Plant response rating, Crabgrass, Large [8, 19] | Plant response rating, Foxtail, Giant [11, 18] | Plant response rating, Velvetleaf [12, 19]
